9 compounds from patent US12590062B2, “PD-1/PD-L1 inhibitors” (Gilead Sciences, Inc., priority 2017, dated 2026) can be followed below.

One assay concerns the target T1, PD-L1 (Homo sapiens, UniProt Q9NZQ7).
T1 construct: determine if they can specifically dimerize the extracellular domains of PD-L1
The assay is described as follows: PD-L1/PD-L1 dimerization biochemical protein-protein interaction assay (ALPHA). It is filed as binding. As to conditions: compound-induced PD-L1 dimerization, head prints '1 nM' (0.5 nM His-tagged PD-L1 and 0.5 nM FLAG-tagged PD-L1), read-out: AC50 PDL1 Dimer Alpha 1 nM. Put shortly:
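ALPHA proximity assay of compound-induced dimerization of 0.5 nM His-tagged and 0.5 nM FLAG-tagged PD-L1 extracellular domains in Hepes pH 7.4 buffer, 2 h at 25 °C. Anti-His acceptor then anti-FLAG donor beads, 60 min each; AC50 from four-parameter fit.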

For the next assay, the target named is T2, PD-1/PD-L1 interaction (Homo sapiens, UniProt Q9NZQ7).
T2 construct: expressed in transfected cells; host or cells: CHO cells (aAPC-PD-L1) co-cultured with Jurkat cells overexpressing PD-1 and an NFAT-luciferase reporter
T2 sequence (Q9NZQ7 19-290): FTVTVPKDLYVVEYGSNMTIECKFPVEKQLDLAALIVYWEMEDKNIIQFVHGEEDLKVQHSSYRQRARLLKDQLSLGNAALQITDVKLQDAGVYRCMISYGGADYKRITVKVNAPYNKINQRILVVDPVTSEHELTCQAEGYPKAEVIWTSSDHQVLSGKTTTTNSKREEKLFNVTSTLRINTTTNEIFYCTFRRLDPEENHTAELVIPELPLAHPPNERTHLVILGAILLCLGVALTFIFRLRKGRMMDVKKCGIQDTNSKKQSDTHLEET
Briefly: PD-1/PD-L1 NFAT reporter co-culture assay. It counts as cell-based. The settings on record: Jurkat PD-1 NFAT-luciferase cells co-cultured with aAPC-PD-L1 CHO cells, 6 hrs at 37° C.; read-out: EC50 NFAT Luciferase. The gist of the method: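 Jurkat cells overexpressing PD-1 with NFAT-luciferase mixed with compounds and plated onto CHO aAPCs expressing anti-CD3 and PD-L1, RPMI with 2% FBS. Co-culture 6 h at 37 °C; luminescence read with ONE-Glo. EC50 from four-parameter fit.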

A further assay addresses PD-1/PD-L1 (Homo sapiens, UniProt Q9NZQ7). Briefly: PD-1/PD-L1 biochemical protein-protein interaction assay (ALPHA). It counts as binding. As to conditions: 0.3 nM His tagged PD-L1, 2.5 nM biotinylated Fc-PD-1, 60 minutes at 25° C., read-out: IC50 PD-L1-PD-1 Alpha IC50-mono PD-L1-fcP-D1. The gist of the method: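 Final concentrations 0.3 nM His-tagged PD-L1 and 2.5 nM biotinylated Fc-PD-1 (extracellular domains) were reacted with compound for 60 min at 25° C in pH 7.4 Hepes/NaCl/EDTA/Tween/BSA buffer. Binding was then detected by ALPHA beads, and IC50 values were taken from four-parameter curve fitting.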

The structures appear in SMILES notation.

T1 sequence (Q9NZQ7 19-238 limits assumed): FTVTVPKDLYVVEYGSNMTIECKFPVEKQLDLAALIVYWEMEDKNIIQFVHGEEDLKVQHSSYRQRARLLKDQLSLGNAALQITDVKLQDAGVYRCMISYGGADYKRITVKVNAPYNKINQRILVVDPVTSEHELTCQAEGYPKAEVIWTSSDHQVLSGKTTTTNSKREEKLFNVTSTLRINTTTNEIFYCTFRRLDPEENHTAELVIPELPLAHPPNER
T1 sequence (Q9NZQ7 19-238 limits assumed): as above
PD-1/PD-L1, sequence (Q9NZQ7 19-238 limits assumed): as above

As to `COc1nc(O[C@H]2CCc3c(-c4cccc(-c5ccc(CNC[C@@H]6CCC(=O)N6)cc5)c4Cl)cccc32)c(Cl)cc1CN[C@@H]1CCC[C@@H]1O` [Example 717], the half-maximal activity concentration (AC50) on PD-L1 turned out to be 16.2 nM. Moreover, the EC50 on PD-1/PD-L1 interaction was 484 nM. Besides, on PD-1/PD-L1, the IC50 came to 0.572 nM.

On to `COc1nc(O[C@H]2CCc3c(-c4cccc(-c5ccc6c(c5)C[C@@H](N)C6)c4Cl)cccc32)c(Br)cc1CNC[C@@H]1CCC(=O)N1` [Example 794], for which the concentration at half-maximal activity (AC50) at PD-L1 turned out to be 94.2 nM. The EC50 on PD-1/PD-L1 interaction came to 794 nM. Besides, at PD-1/PD-L1, the IC50 came out at 1.73 nM.

As for `COc1nc(-c2cccc(-c3cccc4c3CC[C@@H]4Oc3nc(OCc4cncc(C#N)c4)c(CNC[C@@H](O)CC(=O)O)cc3Cl)c2Cl)ccc1CN1CC2(CCC(=O)N2)C1` [Example 683], on PD-L1, the AC50 was found to be 116 nM. At PD-1/PD-L1 interaction, the half-maximal effective concentration (EC50) came to 98 nM. Further, the IC50 on PD-1/PD-L1 is 0.104 nM.

`COc1nc(-c2cccc(-c3cccc(-c4ccc5c(c4)C[C@@H](N)C5)c3Cl)c2Cl)ccc1CN1CC2(CCC(=O)N2)C1` [Example 613]: the half-maximal activity concentration (AC50) on PD-L1 is 158 nM. Besides, the EC50 at PD-1/PD-L1 interaction was determined as 484 nM. For the same compound, the IC50 at PD-1/PD-L1 turned out to be 1.38 nM.

Turning to `COc1nc(-c2csc(-c3cccc(-c4ccc(CNC[C@@H]5CCC(=O)N5)c(OC)n4)c3Cl)c2)ccc1CNC[C@@H]1CCC(=O)N1` [Example 597, (S)-5-((((6-(2-chloro-3-(4-(6-methoxy-5-(((((S)-5-oxopyrrolidin-2-yl)methyl)amino)methyl)pyridin-2-yl)thiophen-2-yl)phenyl)-2-methoxypyridin-3-yl)methyl)amino)methyl)pyrrolidin-2-one], the AC50 on PD-L1 came to 310 nM. In addition, the EC50 at PD-1/PD-L1 interaction is 231 nM. Further, the IC50 on PD-1/PD-L1 was 1.26 nM.

`Cc1c(COc2cc(OCc3cncc(C#N)c3)c(CNC[C@@H](O)CC(=O)O)cc2Cl)cccc1-c1cccc(-c2ccc(CN(C)C)cc2)c1C` [Example 383, (S)-4-((5-chloro-2-((5-cyanopyridin-3-yl)methoxy)-4-((4″-((dimethylamino)methyl)-2,2′-dimethyl-[1,1′:3′,1″-terphenyl]-3-yl)methoxy)benzyl)amino)-3-hydroxybutanoic acid]: the AC50 on PD-L1 was 157 nM. Besides, the EC50 at PD-1/PD-L1 interaction turned out to be 467 nM. The IC50 at PD-1/PD-L1 came out at 0.252 nM.

Take `Cc1c(COc2nc(OCc3cncc(C#N)c3)c(CNCCO)cc2Cl)cccc1-c1cccc(-c2ccc(C(O)CN(C)C)cc2)c1C` (stereo not drawn) [Example 306, 5-(((5-chloro-6-((4″-(2-(dimethylamino)-1-hydroxyethyl)-2,2′-dimethyl-[1,1′:3′,1″-terphenyl]-3-yl)methoxy)-3-(((2-hydroxyethyl)amino)methyl)pyridin-2-yl)oxy)methyl)nicotinonitrile]: the AC50 on PD-L1 came to 292 nM. Also, on PD-1/PD-L1 interaction, the half-maximal effective concentration (EC50) was 547 nM. The IC50 at PD-1/PD-L1 came to 1.97 nM.

For `Cc1c(COc2cc(OCc3cncc(C#N)c3)c(CN[C@@](C)(CO)C(=O)O)cc2Cl)cccc1-c1cccc(-c2ccc(CNCC3CCC(=O)N3)cc2)c1C` (stereo partly drawn) [Example 323, (2S)-2-((5-chloro-2-((5-cyanopyridin-3-yl)methoxy)-4-((2,2′-dimethyl-4″-((((5-oxopyrrolidin-2-yl)methyl)amino)methyl)-[1,1′:3′,1″-terphenyl]-3-yl)methoxy)benzyl)amino)-3-hydroxy-2-methylpropanoic acid], at PD-L1, the AC50 worked out at 67.1 nM. Also, on PD-1/PD-L1 interaction, the EC50 is 168 nM. Also, on PD-1/PD-L1, the half-inhibitory concentration (IC50) worked out at 0.074 nM.

Turning to `Cc1c(-c2nc3ccc(CNC[C@@H](O)CC(=O)O)cc3s2)cccc1-c1cccc2c1CC[C@@H]2Oc1nc(OCc2cncc(C#N)c2)c(CNC[C@@H](O)CC(=O)O)cc1Cl` [Example 396, (S)-4-(((2-(3-((S)-1-((5-((((S)-3-carboxy-2-hydroxypropyl)amino)methyl)-3-chloro-6-((5-cyanopyridin-3-yl)methoxy)pyridin-2-yl)oxy)-2,3-dihydro-1H-inden-4-yl)-2-methylphenyl)benzo[d]thiazol-6-yl)methyl)amino)-3-hydroxybutanoic acid], on PD-L1, the AC50 stood at 37.9 nM. For the same compound, the EC50 on PD-1/PD-L1 interaction was 105 nM. Further, on PD-1/PD-L1, the IC50 stood at 0.064 nM.

For orientation: AC50 means the concentration at which the activity in the assay is half-maximal. By EC50 is commonly meant the concentration giving half of the maximal effect. The term IC50 denotes the midpoint of a concentration-inhibition curve.
